One may read the IC50 as the concentration that gives 50% inhibition.

Bounds are passed on as bounds.

recombinant human 15-PGDH, sequence (P15428 whole entry): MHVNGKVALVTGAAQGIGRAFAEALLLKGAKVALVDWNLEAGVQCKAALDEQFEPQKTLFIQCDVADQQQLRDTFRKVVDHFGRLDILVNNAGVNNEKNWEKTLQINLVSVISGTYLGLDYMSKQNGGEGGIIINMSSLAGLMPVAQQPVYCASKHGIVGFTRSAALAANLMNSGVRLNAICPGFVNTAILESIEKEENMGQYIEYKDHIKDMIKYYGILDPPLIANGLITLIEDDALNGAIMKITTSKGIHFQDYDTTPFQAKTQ

This assay has as its target recombinant human 15-PGDH (Homo sapiens (Human), UniProt P15428). Description: 15-PGDH enzyme inhibition test. The note with it: 4 nM recombinant human 15-PGDH, 30 μM PGE2, 1 mM NAD+, fluorescence 340/440 nm after 60 min. Format: biochemical. The protocol: 15-PGDH Enzyme Inhibition Test
Test compounds and 4 nM recombinant human 15-PGDH (R&D systems) in 50 mM Tris-HCl (pH 8.0) containing 0.01% TWEEN 20 (Sigma) and 0.01% bovine gamma globulin (Sigma) were put into 384 Flat Bottom Black plates (Corning, 3820) and allowed to stand for 12 minutes at room temperature. Then, 30 μM PGE2 (Cayman chemical) and 1 mM NAD^+ (Sigma) were added to start reaction. Sixty minutes after the start of reaction, signals were measured at an excitation wavelength of 340 nm and a fluorescence emission wavelength of 440 nm using Synergy 2 (BioTeck). The intensity of the fluorescent signal obtained when an assay buffer was added in place of the test compounds and NAD^+ was defined as 100% and that obtained with the addition of NAD^+ was defined as 0%.
In the case of `Cn1cc2c(n1)CCN(c1cccc3cc(C(=O)N4CCCCC4)ccc13)C2` [compound 52], the IC50 was 3 to 10 nM.

In the case of `O=C(c1ccc2c(-c3ccc4ncccc4c3)cccc2c1)N1CCC(F)(F)CC1` [compound 76], the IC50 was less than 3 nM.

Consider `O=C1NC(=O)N2CCN(c3cccc4cc(C(=O)N5CCCCC5)ccc34)CC12` (stereo not drawn) [compound 7], for which the IC50 is no less than 10 nM. The same measure for `Cc1ccc2cc(C(=O)N3CCC(F)(F)CC3)ccc2c1-c1ccc2c(=O)[nH]ncc2c1` [compound 100]: less than 3 nM. Under `O=C(c1ccc2c(-c3ccn4c(=O)[nH]nc4c3)cccc2c1)N1CCC(F)(F)CC1` [compound 26] stands less than 3 nM; under `O=C(O)c1ncc(-c2cccc3cc(C(=O)N4CCC(F)(F)CC4)ccc23)cc1F` [compound 130], less than 3 nM; under `C[C@H]1CCCN(C(=O)c2ccc3c(-c4cnc5c(c4)CN(C)C5=O)cccc3c2)C1` [compound 72], less than 3 nM.

Regarding `O=C(c1ccc2c(-c3ccc4c(=O)[nH]ccc4c3)cccc2c1)N1CCC(F)(F)CC1` [compound 110], the IC50 was less than 3 nM.

Take `CN1Cc2cc(-c3ccnc4cc(C(=O)N5CCCCC5)ccc34)ccc2C1=O` [compound 98]: the half-inhibitory concentration (IC50) was less than 3 nM. Under `O=C(O)c1ncc(-c2cccc3cc(C(=O)N4CCC(F)(F)CC4)ccc23)cn1` [compound 127] stands less than 3 nM.

For `Cn1ccc2cc(-c3cccc4cc(C(=O)N5CCC(F)(F)CC5)cnc34)ccc2c1=O` [compound 143], the IC50 is less than 3 nM.

As to `CN1Cc2cc(-c3cccc4cc(C(=O)N5CCC[C@H](C(F)(F)F)C5)ccc34)ccc2C1=O` [compound 25], the half-inhibitory concentration (IC50) is less than 3 nM. The same measure for `Cn1ccc2cc(-c3cccc4cc(C(=O)N5CCC(F)(F)CC5)ccc34)cnc2c1=O` [compound 15]: less than 3 nM; for `C[C@H]1CCCN(C(=O)c2ccc3c(N4CCc5c(cc[nH]c5=O)C4)cccc3c2)C1` [compound 60]: less than 3 nM; for `CN1Cc2cc(-c3cccc4cc(C(=O)N5CCC(C(F)(F)F)CC5)ccc34)ccc2C1=O` [compound 48]: less than 3 nM. Under `C[C@@H]1CCN(C(=O)c2ccc3c(-c4ccc5c(c4)CN(C)C5=O)cccc3c2)C1` [compound 58] stands less than 3 nM; under `O=C(c1ccc2c(-c3ccc4c(c3)CN(CC3CC3)C4=O)cccc2c1)N1CCC(F)(F)CC1` [compound 55], less than 3 nM. Under `CN1Cc2nc(-c3cccc4cc(C(=O)N5CCC(F)(F)CC5)ccc34)ccc2C1=O` [compound 32] stands less than 3 nM; under `Cc1cc2ncccc2cc1-c1cccc2cc(C(=O)N3CCC(F)(F)CC3)ccc12` [compound 36], no less than 10 nM. Consider `CC1c2cc(-c3cccc4cc(C(=O)N5CCC(F)(F)CC5)ccc34)ccc2C(=O)N1C` (stereo not drawn) [compound 10], for which the IC50 was less than 3 nM. The same measure for `O=C(c1cnc2c(-c3cc4cc[nH]c(=O)c4cn3)cccc2c1)N1CCC(F)(F)CC1` [compound 133]: 3 to 10 nM; for `O=C(c1ccc2c(-c3cnc4c(=O)[nH]ccc4c3)cccc2c1)N1CCC(F)(F)CC1` [compound 67]: less than 3 nM.

For the molecule `CN1Cc2cc(-c3cncc4cc(C(=O)N5CCC(F)(F)CC5)ccc34)ccc2C1=O` [compound 120], the half-inhibitory concentration (IC50) is less than 3 nM. Under `CN1Cc2cc(-c3cccc4cc(C(=O)N5CCCC(F)(F)C5)ccc34)ccc2C1=O` [compound 54] stands less than 3 nM; under `O=C(c1ccc2c(-c3cc4cc[nH]c(=O)c4cn3)c(F)ccc2c1)N1CCC(F)(F)CC1` [compound 86], less than 3 nM.

`CS(=O)(=O)CCn1ncc2cc(-c3cccc4cc(C(=O)N5CCC(F)(F)CC5)ccc34)ccc2c1=O` [compound 161]: the IC50 is less than 3 nM.

As to `O=C(c1ccc2c(N3CCn4c(nn(CC(F)F)c4=O)C3)cccc2c1)N1CCCCC1` [compound 19], the IC50 is less than 3 nM.

For the molecule `CN1Cc2cc(-c3cccc4cc(C(=O)N5CCC[C@@H](F)C5)ccc34)ccc2C1=O` [compound 63], the IC50 is less than 3 nM. With `Cn1nc2n(c1=O)CCN(c1cccc3cc(C(=O)N4CCCC5(CC5)C4)ccc13)C2` [compound 92], the IC50 was less than 3 nM.

As to `CN1Cc2cc(-c3c(F)ccc4cc(C(=O)N5CCC(F)(F)CC5)ccc34)cnc2C1=O` [compound 85], the IC50 was 3 to 10 nM. With `C[C@@H]1CCCN(C(=O)c2ccc3c(N4CCn5c(nn(C)c5=O)C4)cccc3c2)C1` [compound 34], the 50% inhibitory concentration (IC50) is less than 3 nM. Under `CN1Cc2cc(-c3ccc4cc(C(=O)N5CCC(F)(F)CC5)ccc4c3)ccc2C1=O` [compound 73] stands no less than 10 nM; under `C[C@@H]1CCCN(C(=O)c2ccc3c(N4CCc5c(cc[nH]c5=O)C4)cccc3c2)C1` [compound 35], less than 3 nM. As for `O=C(c1ccc2ccc(-c3ccc4c(=O)[nH]ccc4c3)cc2c1)N1CCC(F)(F)CC1` [compound 139], the IC50 was less than 3 nM.

Consider `Cc1c(-c2cccc3cc(C(=O)N4CCC(F)(F)CC4)ccc23)ccn2c(=O)n(C)nc12` [compound 115], for which the half-maximal inhibitory concentration (IC50) is less than 3 nM. Take `O=C(c1cnc2c(-c3ccc4c(=O)[nH]ccc4c3)cccc2c1)N1CCC(F)(F)CC1` [compound 134]: the IC50 was less than 3 nM. For the molecule `O=C(O)c1c(F)cc(-c2cccc3cc(C(=O)N4CCC(F)(F)CC4)ccc23)cc1F` [compound 126], the IC50 is less than 3 nM. Under `O=C(c1ccc2cc(-c3ccc4c(=O)[nH]ccc4c3)ccc2c1)N1CCC(F)(F)CC1` [compound 89] stands no less than 10 nM. Regarding `O=C(c1ccc2c(N3CCn4c(nn(CC(F)F)c4=O)C3)cccc2c1)N1CCC[C@H](C(F)(F)F)C1` [compound 93], the IC50 is less than 3 nM. The same measure for `Cc1c(-c2cccc3cc(C(=O)N4CCC(F)(F)CC4)ccc23)ccc2ncccc12` [compound 13]: 3 to 10 nM; for `C[C@H]1CCCN(C(=O)c2ccc3c(-c4ccc5c(=O)[nH]ccc5c4)cccc3c2)C1` [compound 31]: less than 3 nM. Turning to `CN1Cc2cc(-c3cccc4cc(C(=O)N5C[C@H]6CCC[C@H]6C5)ccc34)cnc2C1=O` [compound 153], the concentration for half-maximal inhibition (IC50) is less than 3 nM. Under `CN1Cc2cc(-c3ccc4ccc(C(=O)N5CCC(F)(F)CC5)cc4c3)ccc2C1=O` [compound 138] stands less than 3 nM; under `CN1Cc2cc(-c3cccc4cc(C(=O)N5CCCC5)ccc34)cnc2C1=O` [compound 14], less than 3 nM. In the case of `C[C@@H]1CCN(C(=O)c2ccc3c(N4CCc5ncccc5C4)cccc3c2)C1` [compound 108], the half-maximal inhibitory concentration (IC50) is less than 3 nM. Under `CN1Cc2cc(-c3cccc4cc(C(=O)N5CCC(F)(F)CC5)cnc34)ccc2C1=O` [compound 99] stands 3 to 10 nM; under `COc1nccc2c1CCN(c1cccc3cc(C(=O)N4CCCCC4)ccc13)C2` [compound 22], 3 to 10 nM.

With `O=C1NCc2cc(-c3cccc4cc(C(=O)N5CCC(F)(F)CC5)ccc34)ncc21` [compound 39], the half-inhibitory concentration (IC50) was less than 3 nM. Under `Cc1n[nH]c(=O)c2ccc(-c3cccc4cc(C(=O)N5CCC(F)(F)CC5)ccc34)cc12` [compound 83] stands less than 3 nM; under `CN1Cc2cc(-c3cccc4cc(C(=O)N5CCC(F)(F)CC5)ccc34)ccc2C1=O` [compound 1], less than 3 nM. As to `Cn1ncc2cc(-c3cccc4cc(C(=O)N5CCC(F)(F)CC5)ccc34)ccc2c1=O` [compound 117], the IC50 was less than 3 nM. For `O=C(c1ccc2c(N3CCc4c(cc[nH]c4=O)C3)cccc2c1)N1CCCCC1` [compound 62], the IC50 is less than 3 nM. Under `CN1Cc2cc(-c3cncc4cc(C(=O)N5CCCCC5)ccc34)ccc2C1=O` [compound 69] stands less than 3 nM; under `O=C(c1ccc2c(N3CCc4c(cc[nH]c4=O)C3)cccc2c1)N1CCC[C@@H](F)C1` [compound 23], less than 3 nM; under `Cn1cnc2cc(-c3cccc4cc(C(=O)N5CCC(F)(F)CC5)ccc34)cnc2c1=O` [compound 142], less than 3 nM.

Take `O=C(c1ccc2c(-c3ccc4c(=O)[nH]ccc4c3)cccc2c1)N1CCCCC1` [compound 64]: the IC50 was less than 3 nM.

As for `CN1C(=O)c2ccc(-c3cccc4cc(C(=O)N5CCC(F)(F)CC5)ccc34)cc2C1(C)C` [compound 27], the IC50 was less than 3 nM.

With `Cn1ncc2cc(-c3cccc4cc(C(=O)N5CCC(F)(F)CC5)cnc34)ccc2c1=O` [compound 147], the concentration for half-maximal inhibition (IC50) is less than 3 nM.

For `O=C(c1ccc2c(N3CCn4c(nn(CC(F)F)c4=O)C3)cccc2c1)N1CCCC2CC21` (stereo not drawn) [compound 6], the IC50 is less than 3 nM.

Turning to `O=C(c1ccc2c(-c3ccc4c(=O)[nH]ncc4c3)cccc2c1)N1CCCC1` [compound 80], the half-maximal inhibitory concentration (IC50) is less than 3 nM.

The record behind these values is patent US12304897B2, “15-PGDH inhibitors” (KYORIN PHARMACEUTICAL CO., LTD., priority 2019, dated 2025).
